The text below walks through data of ChEMBL document CHEMBL1151668, “Molecular structure of terrecyclodiol: a derivative of the antifungal metabolite terrecyclic acid A from Aspergillus terreus” (1996).

In test [1] the test system is P388. The test can be described thus: Antitumor activity against mouse P388 cells. The test is classed as functional.
Test [2] deals with Phytophthora cinnamomi. Briefly: Growth inhibition of Phytophthora cinnamomi. Type of test: functional, organism-based.

Activity calls are given as the source filed them. The rule behind the calls is not given here. A value given as a limit tells only on which side of the number the result lay.

Compound `C=C1C(=O)C[C@@H]2[C@@H]3CC[C@@H](C(=O)O)[C@@]12CC3(C)C` [TERRECYCLIC ACID A] returned an Activity in test [1] of less than 0.5 µg/mL. Further, in test [2], the result was Active.
